Test results reported in US20200253929A1, “TREATMENT OF EPILEPSY” (priority 2017, published 2020).
pIC50: −log10 of the molar value.

Key:
[1] = system: zebrafish larvae; experiment: Zebrafish toxicity evaluation (maximum tolerated concentration); assay type: in vivo, Danio rerio; settings: up to 18 hours exposure, 100 μg/mL used where no MTC was reached
Protocol: In case no MTC was reached, 100 μg/mL was used as the test concentration. In line with studies previously reported [Baraban et al. (2005) Neurosci 131, 759-768; Afrikanova et al. (2013) PLoS One 8, e54166], addition of the GABAA-receptor antagonist PTZ to the swimming water of 7 days post-fertilization (dpf) zebrafish larvae strongly elevated larval locomotion (p≤0.001) (FIGS. 2 and 3) as a result of induced seizures (or seizure-like behavior) that were recognized as typical high-speed swimming, whirlpool-like circling, clonus-like seizures, and loss of posture, as previously described in Baraban et al cited above.
Maximum tolerated concentration (MTC) was determined prior to further experiments and used as the highest test concentration. MTC was investigated by exposing 12 larvae of 6 days post-fertilization (dpf) to a range of concentrations in a 100 μL volume during 18 hours. The following parameters were investigated after 2 and 18 hours of exposure: touch response, morphology, posture, edema, signs of necrosis, swim bladder, and heartbeat. […] In case MTC was not reached, 100 μg/mL was used as the highest test concentration.

[2] = system: PTZ-induced seizures in zebrafish larvae; experiment: Zebrafish PTZ seizure model, behavioral analysis; assay type: in vivo, Danio rerio; settings: lower concentrations (MTC/2, MTC/4), 2 hours incubation
[3] = Parallel artificial membrane permeability assay (PAMPA); assay type: in vitro ADME; settings: for Permeability: 10 μM, 5 h, RT
Protocol: The Gentest Pre-coated PAMPA Plate System (Corning) was used to perform the permeability assays. The 96 well filter plate, pre-coated with lipids, was used as the permeation acceptor and a matching 96 well receiver plate was used as the permeation donor. Compound solutions were prepared by diluting 10 mM DMSO stock solutions in PBS with a final concentration at 10 μM. The compound solutions were added to the wells (300 μL/well) of the receiver plate and PBS was added to the wells (200 μL/well) of the pre-coated filter plate. The filter plate was then coupled with the receiver plate and the plate assembly was incubated at RT without agitation for 5 h. Next, the plates were separated and 50 μL solution from each well of both the filter plate and the receiver plate was transferred to a vial with 150 μL acetonitrile and centrifuged at 13300 rpm for 10 min at 4° C. The supernatant was diluted in a solution water/acetonitrile (50/50). The final concentration of compounds in both donor wells and acceptor wells was analyzed by LC-MS/MS. Permeability of the compounds was calculated using the following equation:
Permeability (cm/s): Pe={−ln[1−CA(t)/Ceq]}/[A*(1/VD+1/VA)*t]}
A=filter area (0.3 cm2), VD=donor well volume (0.3 mL), VA=acceptor well volume (0.2 mL), t=incubation time (s), CA(t)=compound concentration in acceptor well at time t, CD(t)=compound concentration in donor well at time t, and Ceq=[CD(t)*VD+CA(t)*VA]/(VD+VA)]

[4] = system: HEPG2 cells; experiment: Cell viability MTT assay, HEPG2 cells; assay type: cell-based, human; settings: 24 h incubation; for pIC50: read-out: Cytotoxicity HEPG2 cells IC50
Protocol: Protocol was based on literature [Patel and Patel. (2011) J. App. Pharm. Sci 1, 167-171]. Three cell lines were used: a) Hep G2 (HB-8065), a well-differentiated human hepatocellular carcinoma cell line, b) THLE-2, human liver epithelial cells transformed with SV40 large T-antigen and c) SHSYSY, a thrice-cloned sub-line of a human metastatic bone tumor. Cells were seeded at a concentration of 1×10^4 cells/well in 200 μL culture medium and incubated at 37° C. in 5% CO2 using 96-well plates for 24 h. Next, the medium was replaced with medium complemented with test compounds. After another 24 h incubation, the medium was replaced by 100 μL of a MTT (3-(4,5-dimethylthiazol-2-yl)-2,5-diphenyltetrazolium bromide) solution (5 mg/mL in PBS and diluted at 0.5 mg/mL in MEM without phenol red). The plates were gently shaken and incubated for 3 hours at 37° C. in a 5% CO2 incubator. The supernatant was removed and 100 μL of 100% DMSO was added. The plates were gently shaken to solubilize the formed formazan. The absorbance was measured using a multireader (Victor2 (Wallac)) at a wavelength of 570 nm.

SMILES	MTC (maximum tolerated concentration) [1]	PTZ-induced seizure behavior, concentration-response retest [2]	Permeability, rating [3]	Permeability [3]	Cytotoxicity HEPG2 cells, effect [4]	pIC50 [4]
CCc1ccc(C2=C(C)C(=O)C3(O2)C(=O)NC(OC)(C(=O)c2ccccc2)C3O)o1 (centres unmarked) [azaspirofuran A]	12.5 µg/mL	No antiseizure activity	High	18.64 ×10⁻⁶ cm/s	No effect	< 4.30
CC/C=C\[C@H](O)[C@H](O)C1=C(C)C(=O)[C@]2(O1)C(=O)N[C@](OC)(C(=O)c1ccccc1)[C@H]2O [pseurotin A2]	12.5 µg/mL	–	Low	0.05 ×10⁻⁶ cm/s	No effect	< 4.30
